Experiments:
[1] = target: T1, cloned rat mGlu1 receptor (Rattus norvegicus, UniProt P23385); assay: Signal transduction at the cloned rat mGlu1 receptor in CHO cells (glutamate-induced Ca2+ rise, FLIPR); assay type: cell-based
T1 construct: expressed in transfected cells; host or cells: CHO cells

rat mGlu1a receptor [2] = target: T2, rat mGlu1a receptor (Rattus norvegicus, UniProt P23385); assay: [3H]Compound A binding to rat mGlu1a receptor CHO-dhfr− membranes (saturation, kinetics, inhibition); conditions: for Ki: 2.5 nM [3H]Compound A, 30 min at 4° C., mean ± SD of 3–4 experiments; for inhibition of [3H]Compound A binding (in words): rat mGlu1a receptor CHO-dhfr− membranes
T2 construct: host or cells: CHO-dhfr- cells
T2 sequence (P23385 19-1199): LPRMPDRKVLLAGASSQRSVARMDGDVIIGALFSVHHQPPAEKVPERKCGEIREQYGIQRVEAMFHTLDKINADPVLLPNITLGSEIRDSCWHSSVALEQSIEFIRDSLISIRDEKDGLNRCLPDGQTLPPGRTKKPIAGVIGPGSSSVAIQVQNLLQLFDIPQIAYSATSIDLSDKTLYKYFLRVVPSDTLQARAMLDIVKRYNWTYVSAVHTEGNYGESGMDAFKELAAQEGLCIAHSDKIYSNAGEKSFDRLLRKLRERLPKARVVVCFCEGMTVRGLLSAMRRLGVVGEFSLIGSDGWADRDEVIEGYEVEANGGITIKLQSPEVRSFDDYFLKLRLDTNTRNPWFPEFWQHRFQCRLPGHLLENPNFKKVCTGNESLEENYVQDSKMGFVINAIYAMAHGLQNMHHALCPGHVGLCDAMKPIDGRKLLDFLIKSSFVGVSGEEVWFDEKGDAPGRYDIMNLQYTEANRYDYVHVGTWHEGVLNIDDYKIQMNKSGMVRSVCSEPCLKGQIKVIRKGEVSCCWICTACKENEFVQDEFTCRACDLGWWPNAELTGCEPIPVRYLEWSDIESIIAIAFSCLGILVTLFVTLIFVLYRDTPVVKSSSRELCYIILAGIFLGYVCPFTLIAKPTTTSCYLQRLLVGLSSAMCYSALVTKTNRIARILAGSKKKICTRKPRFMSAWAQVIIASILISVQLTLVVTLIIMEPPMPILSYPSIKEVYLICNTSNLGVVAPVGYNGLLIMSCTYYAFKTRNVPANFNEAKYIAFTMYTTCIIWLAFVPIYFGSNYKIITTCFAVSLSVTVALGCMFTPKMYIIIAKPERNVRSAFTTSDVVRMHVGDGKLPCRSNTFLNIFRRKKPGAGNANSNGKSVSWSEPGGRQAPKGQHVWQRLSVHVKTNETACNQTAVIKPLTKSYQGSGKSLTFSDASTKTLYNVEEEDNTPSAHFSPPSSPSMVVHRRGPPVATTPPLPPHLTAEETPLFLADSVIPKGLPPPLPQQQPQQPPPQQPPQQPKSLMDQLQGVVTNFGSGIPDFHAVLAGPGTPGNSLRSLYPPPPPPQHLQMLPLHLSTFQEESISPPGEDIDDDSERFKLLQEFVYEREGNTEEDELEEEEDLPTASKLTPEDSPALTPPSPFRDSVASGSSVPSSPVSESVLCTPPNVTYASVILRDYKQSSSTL

rat mGlu1a receptor [3] = target: T2, rat mGlu1a receptor; assay: [3H]quisqualate binding to rat mGlu1a receptor CHO-dhfr− membranes (saturation, inhibition); conditions: inhibition of [3H]quisqualate binding, rat mGlu1a receptor CHO-dhfr− membranes; mean ± SD of 2 experiments
[4] = inhibition of glutamate-induced intracellular Ca2+ rise, CHO cells expressing mGlu1 receptor, compounds with pIC50 between 7 and 8
[5] = 50% inhibition of the glutamate-induced intracellular Ca2+ rise, CHO cells, FLIPR

T1 sequence (P23385 19-1199): as above

Compound	IC50 [1, 4] [nM]	also measured
CCc1cc2cc(C(=O)[C@H]3CC[C@@H](OC)CC3)ccc2nc1C#N [Compound 22]	–	melting point: 138 °C
O=C(c1ccc2nc3c(cc2c1)CCCS3)C1CC2CCC1C2 (stereo not shown) [Compound 445]	23.4	–
CCc1cc2cc(C(=O)C3CCC(OC)CC3)ccc2nc1NC(=O)C1CCN(C(C)=O)CC1 (stereo not shown) [Compound 333]	38.9	–
N[C@H](C(=O)O)c1cc(O)cc(O)c1 [(S)-3,5-DHPG, reference compound]	–	Ki (rat mGlu1a receptor [2]): > 1e+06 nM; inhibition of [3H]Compound A binding (in words) (rat mGlu1a receptor [2]): did not inhibit; Hill coefficient (rat mGlu1a receptor [3]): 0.97 ± 0.00; Ki (rat mGlu1a receptor [3]): 1.42 µM
COc1ccc2cc(C(=O)[C@H]3CC[C@@H](OC)CC3)ccc2n1 [Compound 91]	37.2	–
CCc1cc2cc(C(=O)C3CCC(OC)CC3)ccc2nc1NC(=O)C1CCCO1 (stereo not shown) [Compound 356]	38	–
CCc1cc2cc(C(=O)C3(C)CCC(OC)CC3)ccc2nc1C (stereo not shown) [Compound 242]	17.4	–
NC1(C(=O)O)CCc2cc(C(=O)O)ccc21 (stereo not shown) [AIDA, reference compound]	–	Ki (rat mGlu1a receptor [2]): > 1e+06 nM; inhibition of [3H]Compound A binding (in words) (rat mGlu1a receptor [2]): did not inhibit; Hill coefficient (rat mGlu1a receptor [3]): 0.98 ± 0.03; Ki (rat mGlu1a receptor [3]): 98.3 ± 15.4 µM
O=C(Cc1cccc(F)c1)c1ccc2nc3c(cc2c1)CCCS3 [Compound 484]	28.8	–
CCc1cc2cc(C(=O)C3CCC(OC)CC3)ccc2n2nnnc12 (stereo not shown) [Compound 35]	43.7	melting point: 160 °C
O=C(Cc1ccccc1)c1ccc2nc3c(cc2c1)CCCO3 [Compound 432]	–	IC50 [1, 5]: 5.79 nM
CCc1cc2cc(C(=O)C3(F)CCC(OC)CC3)ccc2nc1C (stereo not shown) [Compound 224]	16.6	–
C=Cc1nc2ccc(C(=O)C3CCC(OC)CC3)cc2cc1CC (stereo not shown) [Compound 28]	–	melting point: 108 °C
CCc1cc2cc(C(=O)CC3CC4CCC3C4)ccc2nc1C (stereo not shown) [Compound 303]	60.3	–
CCc1cc2cc(C(=O)C3CCC(OC)CC3)ccc2nc1NC(=O)C1CCCCC1 (stereo not shown) [Compound 344]	30.2	–
COC1CCC(C(=O)c2ccc3nc4c(cc3c2)CCCO4)=CO1 (stereo not shown) [Compound 460]	45.7	–
COCc1cc2cc(C(=O)[C@H]3CC[C@H](OC)CC3)ccc2nc1C [Compound 286]	93.3	–
O=C(c1ccc2nc3c(cc2c1)CCCO3)C1CC=CCC1 (stereo not shown) [Compound 435]	41.7	–
O=C(c1ccc2nc3c(cc2c1)CCCO3)C1COc2ccccc2O1 (stereo not shown) [Compound 438]	64.6	–
CCCc1cc2cc(C(=O)[C@H]3CC[C@@H](OC)CC3)ccc2nc1Cl [Compound 291]	44.7	–
O=C(Cc1ccccc1)c1ccc2nc3c(cc2c1)CCCCC3 [Compound 454]	35.5	–
CCc1cc2cc(/C(=N\N)C3CCC(OC)CC3)ccc2nc1OC (stereo not shown) [Compound 53]	–	melting point: 110 °C
O=C(Cc1ccccc1F)c1ccc2nc3c(cc2c1)CCCO3 [Compound 477]	–	IC50 [1, 5]: 5.62 nM

Now from value to compound, other results behind:

IC50 [1, 4] [nM]	Compound	also measured
87.1	CCCc1cc2cc(C(=O)Cc3ccccc3)ccc2nc1C [Compound 290]	–
79.4	O=C(c1ccc2nc3c(cc2c1)CCS3)C1COc2ccccc2C1 (stereo not shown) [Compound 466]	–
39.8	CCc1cc2cc(C(=O)C3CCC(OC)CC3)ccc2nc1NC(=O)Nc1ccc(N(C)C)cc1 (stereo not shown) [Compound 369]	–
53.7	CCc1cc2cc(C(=O)Cc3ccccc3)ccc2nc1N [Compound 289]	–
40.7	CC1CCC(C(=O)c2ccc3nc4c(cc3c2)CCS4)CC1 (stereo not shown) [Compound 430]	–
11.2	O=C(Cc1ccccc1)c1ccc2nc3c(cc2c1)CCS3 [Compound 441]	–
16.2	CO[C@H]1CC[C@@H](C(=O)c2ccc3nc(C)ccc3c2)CC1 [Compound 238]	–

Reference: patent US7517517B2 (Janssen Pharmaceutica N.V., priority 2002, dated 2009)
